Counter-ions that a name gives are not always drawn.

Here are results for 29 molecules from patent US8071620B2, “Carbamic acid compounds comprising a bicyclic heteroaryl group as HDAC inhibitors” (Topotarget UK Limited, priority 2003, dated 2011).

Series [1] relates to HeLa cells. In words: Secondary assay: cell proliferation inhibition WST-1, HeLa. Format: cell-based. The following applies: Homo sapiens, 48 h. The procedure:
(§1) Compounds with HDAC inhibition activity, as determined using the primary assay, were subsequently evaluated using secondary cell-based assays. The following cell lines were used:
HeLa—Human cervical adenocarcinoma cell line (ATCC ref. No. CCL-2).
(§2) Cells were cultured, exposed to candidate compounds, and incubated for a time, and the number of viable cells was then assessed using the Cell Proliferation Reagent WST-1 from Boehringer Mannheim (Cat. No. 1 644 807), described below.
(§3) Cells were plated in 96-well plates at 3-10×10^3 cells/well in 100 μL of culture medium. The following day, different concentrations of candidate compounds were added and the cells incubated at 37° C. for 48 h. Subsequently, 10 μL/well of WST-1 reagent was added and the cells reincubated for 1 hour. After the incubation time, absorbance was measured.
(§4) WST-1 is a tetrazolium salt which is cleaved to formazan dye by cellular enzymes. An expansion in the number of viable cells results in an increase in the overall activity of mitochondrial dehydrogenases in the sample. This augmentation in the enzyme activity leads to an increase in the amount of formazan dye formed, which directly correlates to the number of metabolically active cells in the culture. The formazan dye produced is quantified by a scanning multiwell spectrophotometer by measuring the absorbance of the dye solution at 450 nm wavelength (reference wavelength 690 nm).
(§5) Percent activity (% activity) in reducing the number of viable cells was calculated for each test compound as: % activity={(S^c−B)/(S°−B)}×100 wherein S^c denotes signal measured in the presence of the compound being tested, S° denotes signal measured in the absence of the compound being tested, and B denotes the background signal measured in blank wells containing medium only. […] IC50 values were calculated using the software package Prism 3.0 (GraphPad Software Inc., San Diego, Calif.), setting top value at 100 and bottom value at 0.
Background: Formazan colour is commonly taken as a measure of viable cells.

Series [2] has as its system HDAC (HeLa cell extract). Briefly: Primary assay: deacetylase activity (HDAC inhibition), HeLa cell extract. To be noted: HeLa cell extract as HDAC source; read-out: Biochemical Assay Data HDAC Inhibition (IC50) HeLa. Details: species or system human. An excerpt:
Briefly, this assay relies on the release of radioactive acetate from a radioactively labelled histone fragment by the action of HDAC enzyme. Test compounds, which inhibit HDAC, reduce the yield of radioactive acetate. Signal (e.g., scintillation counts) measured in the presence and absence of a test compound provide an indication of that compound's ability to inhibit HDAC activity. Decreased activity indicates increased inhibition by the test compound.
The histone fragment was an N-terminal sequence from histone H4, and it was labelled with radioactively labelled acetyl groups using tritiated acetylcoenzyme A (coA) in conjunction with an enzyme which is the histone acetyltransferase domain of the transcriptional coactivator p300. […] The acetylated peptide was then separated from free acetyl coA by size exclusion chromatography on Sephadex G-15 (Sigma G-15-120), using distilled H2O as the mobile phase.
After purification of the radiolabelled histone fragment, it was incubated with a source of HDAC (e.g., an extract of HeLa cells (a rich source of HDAC), recombinantly produced HDAC1 or HDAC2) and any released acetate was extracted into an organic phase and quantitatively determined using scintillation counting. By including a test compound with the source of HDAC, that compound's ability to inhibit the HDAC was determined.
Alternatively, the activity of the compounds as HDAC inhibitors was determined using a commercially available fluorescent assay kit: (Fluor de Lys™, BioMol Research Labs, Inc., Plymouth Meeting, USA).
Extensive comparative studies have shown that Primary Assay (1) and Primary Assay (2), discussed above, yield equivalent results. Primary Assay results reported herein are (a) exclusively from (1); (b) exclusively from (2); or (c) from both (1) and (2).
The HeLa cell extract was made from HeLa cells (ATCC Ref. No. CCL-2) by freeze-thawing three times in 60 mM TrisCl pH 8.0, 450 mM NaCl, 30% glycerol. Two cell volumes of extraction buffer were used, and particulate material was centrifuged out (20800 g, 4° C., 10 min). The supernatant extract having deacetylase activity was aliquoted and frozen for storage.
Percent activity (% activity) for each test compound was calculated as: % activity={(S^c−B)/(S°−B)}×100 wherein S^c denotes signal measured in the presence of enzyme and the compound being tested, S° denotes signal measured in the presence of enzyme but in the absence of the compound being tested, and B denotes the background signal measured in the absence of both enzyme and compound being tested.

The subject of series [3] is K11 HPV E7 transformed human keratinocyte line. Briefly: Secondary assay: cell proliferation inhibition WST-1, K11. To be noted: K11 cells, 48 h. Format: cell-based. The method, then:
as §1
K11—HPV E7 transformed human keratinocyte line provided by Pidder Jansen-Duerr, Institut für Biomedizinische Alternsforschung, Innsbruck, Austria.
as §3, §4, §5

The test system of series [4] is JURKAT human T-cell line. In words: Secondary assay: cell proliferation inhibition WST-1, Jurkat. The following applies: Jurkat cells, 48 h. The class given is cell-based. The procedure:
as §1
JURKAT—Human T-cell line (ATCC no. TIB-152).
as §2, §3, §4, §5

`O=C(/C=C/c1cccc2ncccc12)NO` [PX119088, (E)-N-Hydroxy-3-(5-quinolinyl)-2-propenamide]: the melting point (commonly the temperature, or range, at which the solid turns liquid) is 211 to 213 °C. Moreover, half-maximal inhibition in series [1] (IC50) required 17800 nM.

Regarding `O=C(/C=C/c1cnc2ccccc2n1)NO` (as salt: sodium) [PX118840, (E)-3-(2-Quinoxalinyl)-N-hydroxy-2-propenamide sodium salt], the melting point is 200 to 202 °C (dec.).

`Cc1ccc2ccc(/C=C/C(=O)NO)nc2c1` [PX118869, (E)-N-Hydroxy-3-(7-methyl-2-quinolinyl)-2-propenamide] displayed a melting point of 191 to 193 °C. In addition, the IC50 (usually the concentration that gives 50% inhibition) in series [2] worked out at 38 nM. This molecule registered an IC50 in series [1] of 1500 nM.

The molecule `O=C(CCc1ccc2ccccc2n1)NO` [PX118828, N-Hydroxy-3-(2-quinolinyl)propanamide] yielded a melting point of 159 to 160 °C. In series [2], the IC50 turned out to be 250 nM. The IC50 in series [1] was 27200 nM.

`O=C(/C=C/C=C/c1ccc2ccccc2n1)NO` [PX119135, (2E,4E)-N-Hydroxy-5-(2-quinolinyl)-2,4-pentadienamide] showed a melting point of 160 to 162 °C. For the same molecule, the half-inhibitory concentration (IC50) in series [2] was found to be 330 nM.

Consider `O=C(/C=C/c1cnc2ccccc2n1)NO` [PX118840, (E)-3-(2-Quinoxalinyl)-N-hydroxy-2-propenamide sodium salt], for which the IC50 in series [2] is 42 nM; in series [1], 2100 nM.

Molecule `Cc1nc2ccccc2nc1/C=C/C(=O)NO` [PX118866, (E)-N-Hydroxy-3-(3-methyl-2-quinoxalinyl)-2-propenamide] returned a melting point of 170 to 172 °C. This molecule gave an IC50 in series [1] of 33100 nM.

Regarding `O=C(/C=C/c1ccc2ccccc2n1)NO` [PX117449, (E)-N-Hydroxy-3-(2-quinolinyl)-2-propenamide], the melting point was 159.5 to 160.5 °C. Besides, the IC50 in series [2] is 35 nM. For the same molecule, in series [3] (Homo sapiens, Keratinocyte), half-maximal inhibition (IC50) was put at 12400 nM. In series [1], this molecule came in with a half-maximal inhibitory concentration (IC50) of 1800 nM. The same molecule displayed an IC50 in series [4] (Homo sapiens) of 1000 nM.

With oxamflatin, the IC50 in series [4] amounted to 170 nM.

The molecule `O=C(/C=C/c1nc2ccccc2s1)NO` [PX118915, (E)-3-(1,3-Benzothiazol-2-yl)-N-hydroxy-2-propenamide] had a melting point of 163 to 165 °C. In series [2], the IC50 turned out to be 30 nM. For the same molecule, in series [1], the IC50 turned out to be 7200 nM.

Molecule `O=C(/C=C/c1ccc2cccnc2c1)NO` [PX119068, (E)-N-Hydroxy-3-(7-quinolinyl)-2-propenamide] came in with a melting point of 203 to 205 °C. The IC50 in series [2] came to 111 nM. Besides, the IC50 in series [1] is 6700 nM.

`O=C(NO)c1ccc(OCc2ccc3ccccc3n2)cc1` [PX119141, N-Hydroxy-4-(2-quinolinylmethoxy)benzamide]: the melting point fell in the range of 202 to 204 °C. Besides, in series [2], the half-maximal inhibitory concentration (IC50) amounted to 186 nM.

As for `Nc1ccccc1NC(=O)c1ccc(CNC(=O)OCc2cccnc2)cc1` [MS-275], the IC50 was 9160 nM in series [3] and 365 nM in series [4].

For the molecule `O=C(/C=C/c1ccc2ncccc2c1)NO` [PX119039, (E)-N-Hydroxy-3-(6-quinolinyl)-2-propenamide], the IC50 amounted to 265 nM in series [2] and 14100 nM in series [1].

For the molecule `COc1ccc2nc(C)ccc2c1/C=C/C(=O)NO` [PX119038, (E)-N-Hydroxy-3-(6-methoxy-2-methyl-5-quinolinyl)-2-propenamide], the melting point was 225 to 227 °C.

`O=C(CCc1nc2ccccc2[nH]c1=O)NO` [PX119094, N-Hydroxy-3-(3-oxo-3,4-dihydro-2-quinoxalinyl)propanamide] had a melting point of 213 to 214 °C.

In turn, `O=C(/C=C/c1ccc2cccc(OCc3ccccc3)c2n1)NO` [PX118867, (E)-3-[8-(Benzyloxy)-2-quinolinyl]-N-hydroxy-2-propenamide] displayed a melting point of 180 to 182 °C. The IC50 in series [2] amounted to 262 nM. The molecule further showed an IC50 in series [1] of 3900 nM.

`O=C(/C=C/c1ccnc2ccccc12)NO` [PX118885, (E)-3-(4-Quinolinyl)-N-hydroxy-2-propenamide] yielded a melting point of 204 to 206 °C. Besides, the IC50 in series [2] came out at 68 nM. In series [1], 2700 nM corresponded to half-maximal inhibition (IC50).

For `COc1ccc2nc(/C=C/C(=O)NO)ccc2c1Br` [PX118865, (E)-3-(5-Bromo-6-methoxy-2-quinolinyl)-N-hydroxy-2-propenamide], the melting point fell in the range of 204 to 206 °C. Also, the IC50 in series [2] was found to be 218 nM. This molecule had a half-maximal inhibitory concentration (IC50) in series [1] of 1400 nM.

The molecule `Cc1ccc2nc(/C=C/C(=O)NO)cc(C)c2c1` [PX118864, (E)-3-(4,6-Dimethyl-2-quinolinyl)-N-hydroxy-2-propenamide] returned a melting point of 199 to 201 °C. For the same molecule, the IC50 in series [2] was 609 nM. Besides, the IC50 in series [1] is 1300 nM.

`COc1ccc2nc(/C=C/C(=O)NO)ccc2c1` [PX118887, (E)-N-Hydroxy-3-(6-methoxy-2-quinolinyl)-2-propenamide] came in with a melting point of 172 to 175 °C. The 50% inhibitory concentration (IC50) in series [2] came to 28 nM. The molecule also gave a 50% inhibitory concentration (IC50) in series [1] of 1800 nM.

As for `Cc1ccc2nc(/C=C/C(=O)NO)ccc2c1` [PX118839, (E)-3-(6-Methyl-2-quinolinyl)-N-hydroxy-2-propenamide], the melting point was 200 to 202 °C (dec.). The IC50 in series [2] is 40 nM. Further, half-maximal inhibition in series [1] (IC50) was put at 2400 nM.

Molecule `O=C(/C=C/c1cnc2ccccc2c1)NO` [PX118987, (E)-N-Hydroxy-3-(3-quinolinyl)-2-propenamide] yielded a melting point of 205 to 207 °C. In series [2], the IC50 is 197 nM. The molecule further registered an IC50 in series [1] of 3700 nM.

In turn, `O=C(/C=C/c1cccc2cccnc12)NO` [PX119071, (E)-3-(8-Quinolinyl)-N-hydroxy-2-propenamide] came in with a melting point of 159 to 160 °C.

In the case of `O=C(/C=C/c1ccc2cc(F)ccc2n1)NO` [PX118886, (E)-3-(6-Fluoro-2-quinolinyl)-N-hydroxy-2-propenamide], the IC50 was 44 nM in series [2] and 2600 nM in series [1].

`O=C(CCc1ccc2cccc(O)c2n1)NO` [PX119095, N-Hydroxy-3-(8-hydroxy-2-quinolinyl)propanamide] displayed a melting point of 165 to 167 °C. In series [1], this molecule yielded an IC50 of 22300 nM.

`Cc1ccc2nc(CCC(=O)NO)cc(C)c2c1` [PX119138, 3-(4,6-Dimethyl-2-quinolinyl)-N-hydroxypropanamide] gave a melting point of 192 to 194 °C. The IC50 in series [2] is 619 nM.

Regarding `O=C(/C=C/c1nc2ccccc2o1)NO` [PX118835, (E)-3-(1,3-Benzoxazol-2-yl)-N-hydroxy-2-propenamide], the IC50 in series [2] came out at 32 nM; in series [1] it was 1700 nM.

Consider `CC(/C=C/C(=O)NO)=C\[C@@H](C)C(=O)c1ccc(N(C)C)cc1` [TSA, trichostatin A], for which the half-maximal inhibitory concentration (IC50) in series [3] (Homo sapiens, Keratinocyte) was 380 nM; in series [1], 350 nM; in series [4] (Homo sapiens) it was 42 nM.
